# According to patent publication US9085587B2, “Inhibitors of hepatitis C virus” (priority 2010, dated 2015):
# Read-outs that look alike come from different tables or passages of the source.
# Tested on: HCV 1b replication (bicistronic genotype 1b replicon in Huh 7 cells)
# Assay: HCV 1b replicon assay (1b_Huh-Luc/Neo-ET cell line, luciferase readout)
# Type: cell-based
# Conditions: Hepatitis C virus
# Experimental: Biological activity of the compounds of the invention was determined using an HCV replicon assay. The 1b_Huh-Luc/Neo-ET cell line persistently expressing a bicistronic genotype 1b replicon in Huh 7 cells was obtained from ReBLikon GMBH. This cell line was used to test compound inhibition using luciferase enzyme activity readout as a measurement of compound inhibition of replicon levels.
# On Day 1 (the day after plating), each compound was added in triplicate to the cells. Plates were incubated for 72 hours prior to running the luciferase assay. Enzyme activity was measured using a Bright-Glo Kit (cat. number E2620) manufactured by Promega Corporation. The following equation was used to generate a percent control value for each compound. % Control=(Average Compound Value/Average Control)*100
# The EC50 value was determined using GraphPad Prism and the following equation: Y=Bottom+(Top-Bottom)/(1+10^((Log IC50−X)*HillSlope))
# EC50 values of compounds were repeated several times in the replicon assay.
# [1] = Huh-7, 1b_Huh-Luc/Neo-ET cell line, 72 hours, luciferase readout, read-out: EC50, concentration effective to produce a half-maximal inhibition of HCV 1b replication
# [2] = Huh-7, class symbols, genotype 1b replicon, read-out: Inhibition of HCV genotype 1b replicon
# [3] = Huh-7, numeric EC50, genotype 1b replicon, read-out: Inhibition of HCV genotype 1b replicon (EC50)
SMILES,EC50 [1] [nM],EC50 [2] [nM],"EC50 (Huh-7, read-out: Inhibition of HCV genotype 1b replicon) [nM]",EC50 [3] [nM]
CNC(=O)c1c(-c2ccc(F)cc2)oc2cc3c(cc12)[C@H](C)O[C@H](COC(=O)[C@H](C)N)CN3S(C)(=O)=O [Compound B249],≤ 10,< 10,,
CNC(=O)c1c(-c2ccc(F)cc2F)oc2cc3c(cc12)C(C)=CCCN3S(C)(=O)=O [Compound B34],10 to 100,10 to 100,,
CNC(=O)c1c(-c2ccc(F)cc2)oc2cc3c(cc12)[C@H](C)O[C@H](COC(=O)[C@@H](N)CC(C)C)CN3S(C)(=O)=O [Compound B271],≤ 10,< 10,,
CNC(=O)c1c(-c2ccc(F)cc2)oc2cc3c(cc12)[C@H](C)O[C@H](COC(=O)[C@@H](N)Cc1ccccc1)CN3S(C)(=O)=O [Compound B278],≤ 10,< 10,,
CNC(=O)c1c(-c2ccc(Oc3ccc(F)cc3)cc2)oc2cc3c(cc12)[C@H](C)O[C@H](COC(=O)C(C)(C)C)CN3S(C)(=O)=O [Compound B244],≤ 10,< 10,,
CNC(=O)c1c(-c2ccc(F)cc2)oc2cc3c(cc12)[C@H](C)O[C@H](COC(=O)N1CCC(N2CCCCC2)CC1)CN3S(C)(=O)=O [Compound B276],≤ 10,< 10,,
CNC(=O)c1c(-c2ccc(F)cc2)oc2cc3c(cc12)[C@H](C)O[C@@H](CO)CN3S(C)(=O)=O [Compound B274],,10 to 100,,
CNC(=O)c1c(-c2ccc(F)cc2)oc2cc3c(cc12)[C@H](C)O[C@H](COC(=O)CN(C)C)CN3S(C)(=O)=O [Compound B252],≤ 10,< 10,,
CNC(=O)c1c(-c2ccc(F)cc2F)oc2cc3c(cc12)C(CO)CCCN3S(C)(=O)=O (centres unmarked) [Compound B36],10 to 100,10 to 100,,
C=C1CCCN(S(C)(=O)=O)c2cc3oc(-c4ccc(F)cc4)c(C(=O)NC)c3cc21 [Compound B4],10 to 100,10 to 100,,
CNC(=O)c1c(-c2ccc(F)cc2)oc2cc3c(cc12)[C@H](C)O[C@H](CO[C@@H]1CCOC1)CN3S(C)(=O)=O [Compound B286],≤ 10,< 10,,
CNC(=O)c1c(-c2ccccc2F)oc2cc3c(cc12)C(C)CCCN3S(C)(=O)=O (centres unmarked) [Compound B33],≤ 10,< 10,,
CNC(=O)c1c(-c2ccc(F)cc2)oc2cc3c(cc12)[C@H](C)O[C@H](COC(=O)C1CCNCC1)CN3S(C)(=O)=O [Compound 8265],≤ 10,,< 10,
CC[C@H](C)[C@H](N)C(=O)OC[C@@H]1CN(S(C)(=O)=O)c2cc3oc(-c4ccc(F)cc4)c(C(=O)NC)c3cc2[C@H](C)O1 [Compound B269],≤ 10,< 10,,
CNC(=O)c1c(-c2ccc(Oc3ccc(F)cc3)cc2)nn2cc3c(cc12)C(C)OC(CO)CN3S(C)(=O)=O (centres unmarked) [Compound B250],,10 to 100,,
CNC(=O)c1c(-c2ccc(F)cc2)oc2cc3c(cc12)[C@H](C)O[C@H](COC(=O)[C@@H]1CCCN1)CN3S(C)(=O)=O [Compound B266],≤ 10,< 10,,
CNC(=O)c1c(-c2ccc(F)cc2)oc2cc3c(cc12)[C@H](C)O[C@@H](CS(C)(=O)=O)CN3S(C)(=O)=O [Compound B287],10 to 100,10 to 100,,
CNC(=O)c1c(-c2ccc(F)cc2)oc2cc3c(cc12)[C@H](C)O[C@H](COC(=O)CN)CN3S(C)(=O)=O [Compound B253],≤ 10,< 10,,
CNC(=O)c1c(-c2ccc(F)cc2)oc2cc3c(cc12)[C@H](C)O[C@H](COC(=O)[C@@H](N)[C@@H](C)OC)CN3S(C)(=O)=O [Compound B270],≤ 10,< 10,,
CNC(=O)c1c(-c2ccc(F)cc2)oc2cc3c(cc12)[C@H](C)O[C@H](COC(=O)c1cccnc1)CN3S(C)(=O)=O [Compound B263],≤ 10,< 10,,

SMILES,EC50 [1] [nM],EC50 [2] [nM],"EC50 (Huh-7, read-out: Inhibition of HCV genotype 1b replicon) [nM]",EC50 [3] [nM]
CNC(=O)c1c(-c2ccc(Oc3ccc(F)cc3)cc2)nn2cc3c(cc12)C(C)OC(CS(C)(=O)=O)CN3S(C)(=O)=O (centres unmarked) [Compound B251],,10 to 100,,
CN/C(=N\O)c1c(-c2ccc(F)cc2)oc2cc3c(cc12)[C@H](C)O[C@H](CS(C)(=O)=O)CN3S(C)(=O)=O [Compound B283],,100 to 1000,,
C=C1CCCN(S(C)(=O)=O)c2cc3oc(-c4ccc(F)cc4F)c(C(=O)NC)c3cc21 [Compound B29],10 to 100,,,56.1
CNC(=O)c1c(-c2ccc(F)cc2)oc2cc3c(cc12)[C@H](C)O[C@H](CO[C@H]1CCOC1)CN3S(C)(=O)=O [Compound B285],≤ 10,< 10,,
CNC(=O)c1c(-c2ccc(F)cc2)oc2cc3c(cc12)[C@H](C)O[C@H](COC(=O)COCCOCCOCCOC)CN3S(C)(=O)=O [Compound B258],≤ 10,< 10,,
CNC(=O)c1c(-c2ccc(F)cc2)nn2cc3c(cc12)C(C)OC(CS(C)(=O)=O)CN3S(C)(=O)=O (centres unmarked) [Compound B247],≤ 10,10 to 100,,
CNC(=O)c1c(-c2ccc(F)cc2)oc2cc3c(cc12)[C@H](C)O[C@H](COC(=O)COCCOCCOCCOCCOC)CN3S(C)(=O)=O [Compound B259],≤ 10,< 10,,
CNC(=O)c1c(-c2ccc(F)cc2)oc2cc3c(cc12)C1(CCCN3S(C)(=O)=O)CC1 [Compound B9],10 to 100,10 to 100,,
CNC(=O)c1c(-c2ccc(F)cc2)oc2cc3c(cc12)[C@H](C)O[C@H](COC[C@H](O)CO)CN3S(C)(=O)=O [Compound B279],10 to 100,10 to 100,,
C=C1CCCN(S(C)(=O)=O)c2cc3oc(-c4ccccc4F)c(C(=O)NC)c3cc21 [Compound B31],10 to 100,10 to 100,,
CNC(=O)c1c(-c2ccc(F)cc2)oc2cc3c(cc12)CCN3S(C)(=O)=O [Compound B21],,100 to 1000,,
CNC(=O)c1c(-c2ccc(F)cc2)oc2cc3c(cc12)[C@H](C)O[C@H](COC(=O)[C@@H](N)Cc1cnc[nH]1)CN3S(C)(=O)=O [Compound B277],≤ 10,< 10,,
CNC(=O)c1c(-c2ccc(F)cc2)oc2cc3c(cc12)[C@H](C)O[C@H](COC(=O)CC1CCNCC1)CN3S(C)(=O)=O [Compound B264],10 to 100,10 to 100,,
CNC(=O)c1c(-c2ccc(F)cc2)oc2cc3c(cc12)C(O)CCCN3S(C)(=O)=O (centres unmarked) [Compound B8],,,,106
CNC(=O)c1c(-c2ccc(F)cc2)oc2cc3c(cc12)[C@H](C)O[C@H](COC)CN3S(C)(=O)=O [Compound B260],≤ 10,< 10,,
CNC(=O)c1c(-c2ccc(Oc3ccc(F)cc3)cc2)oc2cc3c(cc12)[C@H](C)O[C@H](COC(=O)c1cccnc1)CN3S(C)(=O)=O [Compound B246],≤ 10,< 10,,
CNC(=O)c1c(-c2ccc(F)cc2)oc2cc3c(cc12)C(C)=CCCN3S(C)(=O)=O [Compound B6],10 to 100,10 to 100,,
CNC(=O)c1c(-c2ccc(F)cc2)oc2cc3c(cc12)[C@H](C)O[C@H](COC(=O)[C@@H](N)c1ccccc1)CN3S(C)(=O)=O [Compound B272],≤ 10,< 10,,
CNC(=O)c1c(-c2ccc(F)cc2)oc2cc3c(cc12)[C@H](C)O[C@H](COC(=O)[C@@H](N)CO)CN3S(C)(=O)=O [Compound B281],≤ 10,< 10,,
CNC(=O)c1c(-c2ccc(F)cc2)oc2cc3c(cc12)[C@H](C)O[C@H](COCCOCCOC)CN3S(C)(=O)=O [Compound B268],≤ 10,< 10,,
